Assay results published in US20240116912A1, “COMPOUNDS AND METHODS FOR MODULATING FXR” (Terns Pharmaceuticals, Inc., priority 2020, published 2024).

What was measured:
[1] = biological target: ligand binding domain (LBD) of recombinant human FXR (Homo sapiens (Human), UniProt Q96RI1); experiment: FXR cell free coactivator (SRC-1) recruitment assay, TR-FRET; settings: FXR LBD (amino acids 244-476) with labeled SRC-1 domain, 25° C. for 60 minutes, activity relative to CDCA maximum; read-out: EC50 FXR- Biochemical TR-FRET/μM
Chain of ligand binding domain (LBD) of recombinant human FXR (Q96RI1 254-486): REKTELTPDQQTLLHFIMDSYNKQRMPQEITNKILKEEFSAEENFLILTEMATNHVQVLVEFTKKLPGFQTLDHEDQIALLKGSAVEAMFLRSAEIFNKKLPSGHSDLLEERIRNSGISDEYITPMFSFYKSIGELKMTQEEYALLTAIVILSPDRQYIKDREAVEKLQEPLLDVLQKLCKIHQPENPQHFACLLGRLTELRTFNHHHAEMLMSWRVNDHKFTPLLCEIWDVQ
Chain of ligand binding domain (LBD) of recombinant human FXR (Q15788 whole entry partner, the tested form may be a part): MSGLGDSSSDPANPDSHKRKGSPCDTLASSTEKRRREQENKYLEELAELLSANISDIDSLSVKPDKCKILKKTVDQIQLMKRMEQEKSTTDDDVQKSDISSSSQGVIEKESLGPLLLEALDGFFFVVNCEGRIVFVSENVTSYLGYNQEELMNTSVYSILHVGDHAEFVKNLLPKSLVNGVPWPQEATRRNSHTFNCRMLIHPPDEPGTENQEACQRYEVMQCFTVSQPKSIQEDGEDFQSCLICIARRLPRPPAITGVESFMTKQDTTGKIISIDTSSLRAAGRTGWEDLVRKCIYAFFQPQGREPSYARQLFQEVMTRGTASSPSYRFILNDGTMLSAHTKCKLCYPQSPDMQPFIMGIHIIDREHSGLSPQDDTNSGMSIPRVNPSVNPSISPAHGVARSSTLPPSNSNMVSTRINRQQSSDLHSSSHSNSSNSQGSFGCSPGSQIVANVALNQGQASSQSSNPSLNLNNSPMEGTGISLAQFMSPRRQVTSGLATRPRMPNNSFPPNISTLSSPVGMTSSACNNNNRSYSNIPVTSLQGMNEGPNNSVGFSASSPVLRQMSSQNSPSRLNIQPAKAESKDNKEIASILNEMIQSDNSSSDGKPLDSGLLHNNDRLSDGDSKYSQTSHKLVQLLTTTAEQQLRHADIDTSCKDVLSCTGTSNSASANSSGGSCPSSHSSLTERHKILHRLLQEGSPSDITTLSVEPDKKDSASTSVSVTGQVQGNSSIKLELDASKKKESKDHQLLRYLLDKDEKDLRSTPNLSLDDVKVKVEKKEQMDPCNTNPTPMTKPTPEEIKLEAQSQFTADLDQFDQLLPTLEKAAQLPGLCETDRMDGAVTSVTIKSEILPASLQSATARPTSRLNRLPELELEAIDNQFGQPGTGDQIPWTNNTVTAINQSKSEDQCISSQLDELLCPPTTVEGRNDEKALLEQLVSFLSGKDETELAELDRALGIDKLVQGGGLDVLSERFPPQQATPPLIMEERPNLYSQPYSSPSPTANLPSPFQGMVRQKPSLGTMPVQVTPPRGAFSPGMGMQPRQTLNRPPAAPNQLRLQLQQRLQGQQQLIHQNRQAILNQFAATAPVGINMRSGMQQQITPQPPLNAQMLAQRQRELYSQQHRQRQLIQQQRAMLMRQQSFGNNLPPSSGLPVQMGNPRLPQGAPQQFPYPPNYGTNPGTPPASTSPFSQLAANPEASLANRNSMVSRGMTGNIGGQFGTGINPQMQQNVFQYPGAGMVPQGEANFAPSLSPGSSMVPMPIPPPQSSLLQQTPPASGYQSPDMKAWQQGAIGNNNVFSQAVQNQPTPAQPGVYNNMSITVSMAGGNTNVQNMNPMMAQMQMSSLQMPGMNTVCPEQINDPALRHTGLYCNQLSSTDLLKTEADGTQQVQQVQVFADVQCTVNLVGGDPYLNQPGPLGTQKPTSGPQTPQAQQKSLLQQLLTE
Experimental: A cell free coactivator recruitment assay was developed for FXR, to measure the functional potency of novel FXR compounds. In this assay, novel FXR compounds were bound to the ligand binding domain (LBD) of recombinant human FXR. The ability of this liganded homodimeric complex to recruit the co-activator protein steroid receptor coactivator 1 (SRC-1) was measured using Time-Resolved Fluorescence Resonance Energy Transfer (TR-FRET).
The LBD of human FXR (amino acids 244-476) was cloned into an expression vector for protein expression in SF9 insect cells. Purified FXR LBD was incubated in TR-FRET coregulator buffer G (Eurofins) with test compounds (0-10 micromolar) and a labeled nuclear receptor interaction domain of SRC-1 at 25° C. for 60 minutes (final DMSO vehicle concentration was 1.2%). Assays were analyzed using an Envision TR-FRET reader (PerkinElmer Life and Analytical Sciences). Compound activity at each concentration was defined as a percentage of the maximal activity of the natural FXR ligand agonist chenodeoxycholic acid (CDCA) generating a dose response curve.

[2] = biological target: full length human FXR protein (Homo sapiens (Human), UniProt Q96RI1); experiment: FXR cellular assay (FXR-SRCP β-gal enzyme fragment complementation in CHO-K1 cells, chemiluminescence); assay type: cell-based; settings: CHO-K1 cells with SRCP-EA and ProLink-labeled FXR, 0-10 micromolar compound, 37° C. for 6h, read-out: EC50 FXR-cell Luminescence/
Chain of full length human FXR protein (Q96RI1 whole entry, the tested form may be a part): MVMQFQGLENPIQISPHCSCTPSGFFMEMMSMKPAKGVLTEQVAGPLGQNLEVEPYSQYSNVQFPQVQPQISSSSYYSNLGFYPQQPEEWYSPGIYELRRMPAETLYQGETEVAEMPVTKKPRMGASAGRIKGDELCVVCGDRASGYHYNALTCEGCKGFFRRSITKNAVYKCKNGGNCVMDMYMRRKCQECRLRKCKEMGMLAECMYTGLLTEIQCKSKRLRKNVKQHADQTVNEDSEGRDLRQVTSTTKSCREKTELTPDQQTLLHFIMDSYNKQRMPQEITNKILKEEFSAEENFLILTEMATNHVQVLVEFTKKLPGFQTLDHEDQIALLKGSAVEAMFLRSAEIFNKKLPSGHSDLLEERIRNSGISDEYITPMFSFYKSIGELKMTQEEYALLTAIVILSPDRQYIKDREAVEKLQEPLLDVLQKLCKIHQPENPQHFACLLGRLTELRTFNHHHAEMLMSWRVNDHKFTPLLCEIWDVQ
Source text: A cell based FXR assay was used to detect protein-protein interactions between an activated (ligand-bound), full length human FXR protein and a nuclear fusion protein containing a Steroid Receptor Coactivator Peptide (SCRP) domain. In this approach, two weakly complementing fragments of the 3-gal enzyme were expressed within stably transfected Chinese Hamster Ovary (CHO-K1) cells. The complementing fragments of the 3-gal enzyme (ProLink, PK; and Enzyme Acceptor, EA) were translationally fused to the C-terminus of a full-length FXR and to the SRCP, respectively. Complementation was driven by the protein-protein interaction between SRCP-EA and a ProLink-labeled FXR. Upon FXR-SRCP binding, the two fragments of 3-gal complement, forming a functional enzyme capable of hydrolyzing a substrate molecule and generating a chemiluminescent signal.
CHO-K1 cells containing SRCP-EA and ProLink-labeled FXR were plated in 384-well microplates and incubated at 37° C. overnight. A positive control FXR agonist, GW4064 (0-10 micromolar), or test compounds (0-10 micromolar) were added to plated cells and incubated at 37° C. for 6h (final DMSO vehicle concentration was 1%). The assay signal was generated by addition of 50% (v/v) detection reagent (19:5:1, cell assay buffer: substrate reagent 1: substrate reagent 2, DiscoverX) followed by incubation for 1h at ambient room temperature. Microplates were analyzed using an Envision reader (PerkinElmer Life and Analytical Sciences, Signal=chemiluminescence).

SMILES | EC50 [1] | EC50 [2]
O=c1[nH]c(-c2cc(N3CCC(OCc4c(-c5c(Cl)cccc5Cl)noc4C4CC4)CC3)cs2)no1 [Example 30, 3-(4-(4-((5-cyclopropyl-3-(2,6-dichlorophenyl)isoxazol-4-yl)methoxy)piperidin-1-yl)thiophen-2-yl)-1,2,4-oxadiazol-5(4H)-one] | 0.296 µM | 3620 nM
C[C@@H]1CN(c2ccc(-c3noc(=O)[nH]3)cc2)CC[C@@H]1OCc1c(-c2c(Cl)cccc2Cl)noc1C1CC1 [Example 31, 3-(4-((3R,4S)-4-((5-cyclopropyl-3-(2,6-dichlorophenyl)isoxazol-4-yl)methoxy)-3-methylpiperidin-1-yl)phenyl)-1,2,4-oxadiazol-5(4H)-one] | 0.045 µM | 271 nM
C[C@H]1CN(c2ccc(-c3noc(=O)[nH]3)cc2)CC[C@H]1OCc1c(-c2c(Cl)cccc2Cl)noc1C1CC1 [Example 32, 3-(4-((3S,4R)-4-((5-cyclopropyl-3-(2,6-dichlorophenyl)isoxazol-4-yl)methoxy)-3-methylpiperidin-1-yl)phenyl)-1,2,4-oxadiazol-5(4H)-one] | 0.0126 µM | 195 nM
C[C@H]1CN(c2ccc(-c3noc(=O)[nH]3)cc2)CC[C@@H]1OCc1c(-c2c(Cl)cccc2Cl)noc1C1CC1 [Example 33, 3-(4-((3S,4S)-4-((5-cyclopropyl-3-(2,6-dichlorophenyl)isoxazol-4-yl)methoxy)-3-methylpiperidin-1-yl)phenyl)-1,2,4-oxadiazol-5(4H)-one] | 0.142 µM | 702 nM
C[C@@H]1CN(c2ccc(-c3noc(=O)[nH]3)cc2)CC[C@H]1OCc1c(-c2c(Cl)cccc2Cl)noc1C1CC1 [Example 34, 3-(4-((3R,4R)-4-((5-cyclopropyl-3-(2,6-dichlorophenyl)isoxazol-4-yl)methoxy)-3-methylpiperidin-1-yl)phenyl)-1,2,4-oxadiazol-5(4H)-one] | 0.153 µM | 785 nM
O=c1[nH]c(-c2ccc(N3CCC(OCc4c(-c5c(Cl)cccc5Cl)noc4C4CC4)CC3)s2)no1 [Example 35, 3-(5-(4-((5-cyclopropyl-3-(2,6-dichlorophenyl)isoxazol-4-yl)methoxy)piperidin-1-yl)thiophen-2-yl)-1,2,4-oxadiazol-5(4H)-one] | 0.0435 µM | 324 nM
O=c1[nH]c(-c2ccc(N3CCC(OCc4c(-c5ccccc5OC(F)(F)F)noc4C4CC4)CC3)cc2)no1 [Example 36, 3-(4-(4-((5-cyclopropyl-3-(2-(trifluoromethoxy)phenyl)isoxazol-4-yl)methoxy)piperidin-1-yl)phenyl)-1,2,4-oxadiazol-5(4H)-one] | 0.0188 µM | 113 nM
O=c1[nH]nc(-c2ccc(N3CCC(OCc4c(-c5c(Cl)cccc5Cl)noc4C4CC4)CC3)nc2)o1 [Example 37, 5-(6-(4-((5-cyclopropyl-3-(2,6-dichlorophenyl)isoxazol-4-yl)methoxy)piperidin-1-yl)pyridin-3-yl)-1,3,4-oxadiazol-2(3H)-one] | 0.0494 µM | 274 nM
O=c1[nH]c(-c2csc(N3CCC(OCc4c(-c5c(Cl)cccc5Cl)noc4C4CC4)CC3)c2)no1 [Example 38, 3-(5-(4-((5-cyclopropyl-3-(2,6-dichlorophenyl)isoxazol-4-yl)methoxy)piperidin-1-yl)thiophen-3-yl)-1,2,4-oxadiazol-5(4H)-one] | 0.0286 µM | 263 nM
O=c1[nH]c(-c2ccc(N3CCC(OCc4c(-c5c(Cl)cccc5Cl)noc4C4CC4)CC3)c(F)c2)no1 [Example 39, 3-(4-(4-((5-cyclopropyl-3-(2,6-dichlorophenyl)isoxazol-4-yl)methoxy)piperidin-1-yl)-3-fluorophenyl)-1,2,4-oxadiazol-5(4H)-one] | 0.0161 µM | 154 nM
O=c1[nH]nc(-c2ccc(N3CCC(OCc4c(-c5c(Cl)cccc5Cl)noc4C4CC4)CC3)cn2)o1 [Example 40, 5-(5-(4-((5-cyclopropyl-3-(2,6-dichlorophenyl)isoxazol-4-yl)methoxy)piperidin-1-yl)pyridin-2-yl)-1,3,4-oxadiazol-2(3H)-one] | 0.076 µM | 341 nM
O=c1[nH]nc(-c2ccc(N3CCC(OCc4c(-c5c(Cl)cccc5Cl)noc4C4CC4)CC3)cc2F)c(=O)[nH]1 [Example 41, 6-(4-(4-((5-cyclopropyl-3-(2,6-dichlorophenyl)isoxazol-4-yl)methoxy)piperidin-1-yl)-2-fluorophenyl)-1,2,4-triazine-3,5(2H,4H)-dione] | 0.0584 µM | 244 nM
O=c1[nH]c(-c2cc(N3CCC(OCc4c(-c5c(Cl)cccc5Cl)noc4C4CC4)CC3)no2)no1 [Example 42, 3-(3-(4-((5-cyclopropyl-3-(2,6-dichlorophenyl)isoxazol-4-yl)methoxy)piperidin-1-yl)isoxazol-5-yl)-1,2,4-oxadiazol-5(4H)-one] | 0.139 µM | 10000 nM
O=c1[nH]nc(-c2ccc(N3CCC(OCc4c(-c5c(Cl)cccc5Cl)noc4C4CC4)CC3)nc2)c(=O)[nH]1 [Example 43, 6-(6-(4-((5-cyclopropyl-3-(2,6-dichlorophenyl)isoxazol-4-yl)methoxy)piperidin-1-yl)pyridin-3-yl)-1,2,4-triazine-3,5(2H,4H)-dione] | 0.0112 µM | 248 nM
O=c1[nH]c(-c2ccc(N3CCC(OCc4c(-c5ccccc5Cl)noc4C4CC4)CC3)cc2)no1 [Example 44, 3-(4-(4-((3-(2-chlorophenyl)-5-cyclopropylisoxazol-4-yl)methoxy)piperidin-1-yl)phenyl)-1,2,4-oxadiazol-5(4H)-one] | 0.0213 µM | 371 nM
O=c1[nH]c(-c2n[nH]c(N3CCC(OCc4c(-c5c(Cl)cccc5Cl)noc4C4CC4)CC3)n2)no1 [Example 45, 3-(5-(4-((5-cyclopropyl-3-(2,6-dichlorophenyl)isoxazol-4-yl)methoxy)piperidin-1-yl)-1H-1,2,4-triazol-3-yl)-1,2,4-oxadiazol-5(4H)-one] | 0.61 µM | 10000 nM
O=c1[nH]nc(-c2ccc(N3CCC(OCc4c(-c5c(Cl)cccc5Cl)noc4C4CC4)CC3)cn2)c(=O)[nH]1 [Example 46, 6-(5-(4-((5-cyclopropyl-3-(2,6-dichlorophenyl)isoxazol-4-yl)methoxy)piperidin-1-yl)pyridin-2-yl)-1,2,4-triazine-3,5(2H,4H)-dione] | 0.0746 µM | 10000 nM
O=c1[nH]c(-c2ccc(N3CCCC(OCc4c(-c5ccccc5OC(F)(F)F)noc4C4CC4)CC3)cc2)no1 (centres unmarked) [Example 47, 3-(4-(4-((5-cyclopropyl-3-(2-(trifluoromethoxy)phenyl)isoxazol-4-yl)methoxy)azepan-1-yl)phenyl)-1,2,4-oxadiazol-5(4H)-one] | 0.0037 µM | 76.7 nM
O=c1[nH]nc(-c2ccc(N3CCC(OCc4c(-c5c(Cl)cccc5Cl)noc4C4CC4)CC3)cc2F)o1 [Example 48, 5-(4-(4-((5-cyclopropyl-3-(2,6-dichlorophenyl)isoxazol-4-yl)methoxy)piperidin-1-yl)-2-fluorophenyl)-1,3,4-oxadiazol-2(3H)-one] | 0.0416 µM | 336 nM
O=c1[nH]c(-c2ccc(N3CCCC(OCc4c(-c5c(F)cccc5F)noc4C4CC4)CC3)cc2)no1 (centres unmarked) [Example 49, 3-(4-(4-((5-cyclopropyl-3-(2,6-difluorophenyl)isoxazol-4-yl)methoxy)azepan-1-yl)phenyl)-1,2,4-oxadiazol-5(4H)-one] | 0.0117 µM | 149 nM
O=c1[nH]c(-c2ccc(N3[C@@H]4CC[C@H]3C[C@@H](OCc3c(-c5ccccc5OC(F)(F)F)noc3C3CC3)C4)cc2)no1 [Example 50, 3-(4-((1R,3r,5S)-3-((5-cyclopropyl-3-(2-(trifluoromethoxy)phenyl)isoxazol-4-yl)methoxy)-8-azabicyclo[3.2.1]octan-8-yl)phenyl)-1,2,4-oxadiazol-5(4H)-one] | 0.0032 µM | 53.8 nM
O=c1[nH]nc(-c2ccc(N3CCC(OCc4c(-c5ccccc5OC(F)(F)F)noc4C4CC4)CC3)cc2)o1 [Example 51, 5-(4-(4-((5-cyclopropyl-3-(2-(trifluoromethoxy)phenyl)isoxazol-4-yl)methoxy)piperidin-1-yl)phenyl)-1,3,4-oxadiazol-2(3H)-one] | 0.325 µM | 1290 nM
